# Measurements published in ChEMBL document CHEMBL1201862, “PubChem BioAssay data set” (2004).
# Active and inactive are the calls of the source. For most assays here, no stated cut-off is given here; in the data, actives have a measured EC50 and inactives only a lower limit.
# Key:
# [1] = P. falciparum Dd2 growth inhibitors, dose response, SYBR Green, cherry-picked samples (AID 1159567); format: functional, cell-based
# Large T antigen = Large T antigen (Simian virus 40, UniProt P03070); format: functional, Betapolyomavirus macacae;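 further: Confirmatory-stage PubChem screen for compounds that inhibit SV40 T antigen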
# [2] = molecular target: T1, Rac GTPase-activating protein 1 (Homo sapiens, UniProt Q9H0H5); test: MgcRacGAP GTPase-activating activity inhibitors, confirmation, biochemical, ADP Hunter fluorescence, primary and confirmatory (AID 624330); format: functional
# T1 sequence (Q9H0H5 whole entry): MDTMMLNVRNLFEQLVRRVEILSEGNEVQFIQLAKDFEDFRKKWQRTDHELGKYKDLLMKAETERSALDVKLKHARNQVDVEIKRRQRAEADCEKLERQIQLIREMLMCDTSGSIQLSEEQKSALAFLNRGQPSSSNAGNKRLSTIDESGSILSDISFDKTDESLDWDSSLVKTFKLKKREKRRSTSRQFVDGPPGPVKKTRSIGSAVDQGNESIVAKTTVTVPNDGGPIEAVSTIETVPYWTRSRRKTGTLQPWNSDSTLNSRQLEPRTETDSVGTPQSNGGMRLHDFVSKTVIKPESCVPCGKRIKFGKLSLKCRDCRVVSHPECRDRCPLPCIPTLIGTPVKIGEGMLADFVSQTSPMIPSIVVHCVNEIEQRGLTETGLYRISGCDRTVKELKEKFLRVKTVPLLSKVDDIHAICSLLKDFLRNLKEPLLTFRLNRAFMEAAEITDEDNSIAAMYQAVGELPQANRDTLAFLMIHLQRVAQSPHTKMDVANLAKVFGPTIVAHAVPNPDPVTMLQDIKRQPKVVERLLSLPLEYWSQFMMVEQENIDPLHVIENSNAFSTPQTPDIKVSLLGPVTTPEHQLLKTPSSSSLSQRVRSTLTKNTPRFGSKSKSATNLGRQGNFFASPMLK
# [3] = molecular target: FAD-linked sulfhydryl oxidase ALR (Homo sapiens, UniProt P55789); test: inhibitors of human ALR sulfhydryl oxidase, dose response, biochemical, H2O2 detection, luminescence, cherry-pick (AID 493248)
# cells = format: functional
# [4] = Luminescence Cell-Based Dose Confirmation HTS to Identify Activators of 5'UTR Stem-Loop Driven Alpha-Synuclein mRNA Translation in H4 Neuroglioblastoma Cells. [Related pubchem assays: 1829 (Project Summary), 1814 (Primary HTS)]; format: functional
# [5] = Luminescence Cell-Based Dose Response HTS to Identify Activators of Luciferase Translation or Activity in H4 […] Cells. [Related pubchem assays: 1829 (Project Summary), 1814 (Primary HTS)]; format: functional
# H4 = test: Luminescence Cell-Based Dose Response HTS to Identify Activators of 5'UTR Stem-Loop Driven Prion Protein mRNA Translation in H4 Neuroglioblastoma Cells. [Related pubchem assays: 1829 (Project Summary), 1814 (Primary HTS)]; format: functional; settings: Homo sapiens
# [6] = molecular target: T2, Heat shock factor protein 1 (Mus musculus, UniProt P38532); test: HSF1 potentiators in luciferase reporter cells, confirmation, cell-based, NIH3T3, luminescence, dose retest (AID 435004); format: functional;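 further: stress induced by proteasome inhibitor MG132 added 30 min after compound; luciferase reporter driven by HSF1 response element in NIH3T3 cells; actives raise luminescence as potentiators of the MG132 stress response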
# T2 sequence (P38532 whole entry): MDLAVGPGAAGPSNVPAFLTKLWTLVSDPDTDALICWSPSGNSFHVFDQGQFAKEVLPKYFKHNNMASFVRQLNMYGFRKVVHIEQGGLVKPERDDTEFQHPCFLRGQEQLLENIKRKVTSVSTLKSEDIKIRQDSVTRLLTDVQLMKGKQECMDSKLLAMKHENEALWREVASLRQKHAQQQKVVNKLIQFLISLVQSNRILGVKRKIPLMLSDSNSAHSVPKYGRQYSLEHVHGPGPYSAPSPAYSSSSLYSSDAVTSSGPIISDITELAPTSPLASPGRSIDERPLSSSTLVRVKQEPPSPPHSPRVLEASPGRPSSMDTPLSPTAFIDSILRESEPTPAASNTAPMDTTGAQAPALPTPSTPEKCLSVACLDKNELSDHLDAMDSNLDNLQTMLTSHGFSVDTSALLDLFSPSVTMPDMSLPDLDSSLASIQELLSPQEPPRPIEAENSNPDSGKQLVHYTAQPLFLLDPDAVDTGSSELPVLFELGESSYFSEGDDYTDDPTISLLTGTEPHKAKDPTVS
# [7] = molecular target: T3, Microphthalmia-associated transcription factor (Homo sapiens, UniProt O75030); test: TRPM1 promoter luciferase signal decrease, dose response, MITF inhibitor project, cell-based, SK-MEL-5, cherry-picked, set 3 (AID 493073); format: functional
# T3 sequence (O75030 whole entry): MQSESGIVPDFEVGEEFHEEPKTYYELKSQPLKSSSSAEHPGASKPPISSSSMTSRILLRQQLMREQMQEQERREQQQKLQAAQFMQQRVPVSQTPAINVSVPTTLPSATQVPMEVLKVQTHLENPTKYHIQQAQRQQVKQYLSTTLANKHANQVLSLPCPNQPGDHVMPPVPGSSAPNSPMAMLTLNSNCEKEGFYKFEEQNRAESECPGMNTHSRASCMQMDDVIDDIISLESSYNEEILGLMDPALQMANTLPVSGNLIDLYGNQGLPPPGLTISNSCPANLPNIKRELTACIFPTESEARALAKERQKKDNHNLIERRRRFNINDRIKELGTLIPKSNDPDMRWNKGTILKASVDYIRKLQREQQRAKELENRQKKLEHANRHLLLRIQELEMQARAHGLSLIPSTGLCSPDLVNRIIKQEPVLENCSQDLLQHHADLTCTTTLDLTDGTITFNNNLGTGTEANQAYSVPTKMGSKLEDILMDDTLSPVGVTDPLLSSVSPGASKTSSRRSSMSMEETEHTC
# [8] = Luminescence Cell-Based Dose Retest to Confirm Inhibitors of Cancer Stem Cells. [Related pubchem assays (depositor defined):AID2717, AID2721]; format: functional; settings: Homo sapiens
# INS1 = test: beta cell apoptosis inhibitors, cytokine rescue, dose response, luminescence, retest (AID 449756); format: functional, cell-based; settings: Rattus norvegicus;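 further: cell death triggered by IL-1 beta plus TNF-alpha plus IFN-gamma mixture; protective hits raise ATP signal compared with cytokine alone wells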
# [9] = NIH-3T3 fibroblast cytotoxicity, dose response, cytotoxicity control, cell-based, fluorescence, Alamar Blue, secondary assay (AID 2327); format: functional;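 further: NIH-3T3 mouse fibroblasts cultured with fluconazole at 8 µg/mL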
# [10] = system: Streptococcus sp. 'group A'; test: growth inhibition of control SK(-) GAS strain, dose response, counter-screen for streptokinase expression inhibitor project, luminescence, kanamycin, BacTiterGlo, confirmation (AID 1900); format: functional, organism-based
# Streptokinase A = molecular target: T4, Streptokinase A (Streptococcus pyogenes serotype M1, UniProt P10520); test: S. pyogenes streptokinase expression inhibitors, potency, dose response, plasminogen activation absorbance, OD405 (AID 1914); format: functional, Streptococcus pyogenes M1 GAS;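 further: secreted streptokinase activity via plasminogen activation per viability signal from cell pellet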
# T4 sequence (P10520 whole entry): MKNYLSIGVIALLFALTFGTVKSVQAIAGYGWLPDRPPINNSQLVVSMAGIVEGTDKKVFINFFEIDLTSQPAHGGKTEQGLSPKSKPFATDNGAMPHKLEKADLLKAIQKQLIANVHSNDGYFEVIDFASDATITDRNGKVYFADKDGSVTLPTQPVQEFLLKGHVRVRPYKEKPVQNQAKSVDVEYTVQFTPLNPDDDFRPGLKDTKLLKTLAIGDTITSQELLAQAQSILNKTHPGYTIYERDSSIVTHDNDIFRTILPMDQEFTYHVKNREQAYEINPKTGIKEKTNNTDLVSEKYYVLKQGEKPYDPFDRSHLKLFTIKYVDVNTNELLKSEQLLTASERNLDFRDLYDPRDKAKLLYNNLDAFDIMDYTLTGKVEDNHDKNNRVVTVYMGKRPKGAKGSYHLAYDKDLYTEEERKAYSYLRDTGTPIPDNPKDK
# [11] = C. albicans growth with fluconazole, confirmation, fluorescence, retest (AID 2467); format: functional, cell-based
# Streptococcus = test: Group A Streptococcus viability loss, dose response, counter-screen for streptokinase expression inhibitor project, luminescence, BacTiterGlo (AID 1915); format: functional, organism-based;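 further: potency for reduction of bacterial viability or growth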
# [12] = inhibitors of intracellular T. cruzi replication, confirmation, NIH3T3 host cells, beta-gal luminescence (AID 2044); format: functional, cell-based;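 further: intracellular parasites grown in NIH/3T3 mouse fibroblasts as host cells; luminescent beta-galactosidase reporter signal from transgenic T. cruzi replicating inside host cells; inhibitors lower the luminescence signal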
# [13] = microbe, parasite or virus in culture; format: functional; settings: Mycobacterium tuberculosis
# [14] = cytotoxicity toward NIH3T3 fibroblasts, dose response, counter-screen, cell-based, ATP luminescence, mouse fibroblasts (AID 2010); format: functional;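 further: cells exposed to compound for about 90 hours before reading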
# [15] = molecular target: T2, Heat shock factor protein 1; test: inhibition of MG132-induced HSE-luciferase signal, confirmation, cell-based, NIH3T3, luminescence, dose retest (AID 2382); format: functional;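 further: NIH3T3 fibroblasts with HSF1-driven luciferase reporter stressed by proteasome inhibitor MG132; luminescence from HSF1-driven luciferase expression after 8 hours of MG132 stress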
# [16] = growth suppression of beta-catenin-knockout colon cells, dose response, cell-based, HCT116, human colon tumor (AID 1045); format: functional;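 further: HCT116 colon tumor cells with beta catenin knocked out; cells exposed to compound for 60 hours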
# Sequence of Large T antigen (P03070 whole entry): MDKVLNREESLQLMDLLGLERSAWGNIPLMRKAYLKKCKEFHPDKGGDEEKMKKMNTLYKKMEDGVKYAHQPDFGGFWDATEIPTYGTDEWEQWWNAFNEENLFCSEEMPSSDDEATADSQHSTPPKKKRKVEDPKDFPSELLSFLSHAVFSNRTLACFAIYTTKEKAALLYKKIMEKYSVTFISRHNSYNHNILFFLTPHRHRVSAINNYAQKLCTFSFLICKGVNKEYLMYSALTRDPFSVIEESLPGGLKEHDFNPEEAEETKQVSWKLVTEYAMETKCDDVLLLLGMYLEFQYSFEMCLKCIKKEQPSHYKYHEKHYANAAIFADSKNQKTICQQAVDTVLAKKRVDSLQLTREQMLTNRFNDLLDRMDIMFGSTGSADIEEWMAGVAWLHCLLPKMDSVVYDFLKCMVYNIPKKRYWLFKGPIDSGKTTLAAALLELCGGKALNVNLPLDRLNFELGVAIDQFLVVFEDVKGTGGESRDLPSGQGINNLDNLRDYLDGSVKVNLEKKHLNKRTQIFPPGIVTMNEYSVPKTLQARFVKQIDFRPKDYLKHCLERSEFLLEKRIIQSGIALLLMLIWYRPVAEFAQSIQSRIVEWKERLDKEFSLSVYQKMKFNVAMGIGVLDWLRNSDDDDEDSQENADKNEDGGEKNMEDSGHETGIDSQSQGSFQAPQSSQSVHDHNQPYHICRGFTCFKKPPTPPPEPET
# Sequence of FAD-linked sulfhydryl oxidase ALR (P55789 whole entry): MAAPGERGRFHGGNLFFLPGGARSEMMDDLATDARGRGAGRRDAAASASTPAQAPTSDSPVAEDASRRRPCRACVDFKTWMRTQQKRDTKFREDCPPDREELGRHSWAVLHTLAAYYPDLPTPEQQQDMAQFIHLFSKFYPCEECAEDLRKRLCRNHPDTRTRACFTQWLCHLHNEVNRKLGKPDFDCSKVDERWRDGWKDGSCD
compound,measurement,setting,value
C/C=C/c1ccc2c(c1)[C@H]1[C@H](CCN1C(=O)C1CCCC1)[C@@H](CO)N2,AC50,[1],4.97 µM (active)
CN(C)c1ccc(Nc2cc(Cl)ncn2)cc1,IC50,Large T antigen,7.46 µM (active)
CCC(=O)N1CC2(C1)CN(Cc1cc(F)ccc1F)[C@@H](CO)c1[nH]c3cc(OC)ccc3c12,AC50,[1],7.9 µM (active)
COc1cc(/C=N/NC(=O)Cn2nnc3ccccc32)ccc1O,IC50,Large T antigen,6.59 µM (active)
same,IC50,[2],24.3 µM (active)
O=C(CCN1CCCCCC1)c1ccccc1,AC50,[3],5.85 µM (active)
same,IC50,cells,41 µM (active)
O=C(NCCc1c[nH]c2ccccc12)c1ccc(Cl)cc1,EC50,[4],21.9 µM (active)
same,EC50,[5],> 120 µM (not active)
same,EC50,H4,> 120 µM (not active)
COc1ccc2c3c([nH]c2c1)[C@H](CO)N(Cc1ccc(F)cc1)CC31CCN(Cc2ccccn2)CC1,AC50,[1],2.95 µM (active)
COc1cc(/C=N/NC(=O)CNc2nnc(O)nc2O)ccc1O,IC50,Large T antigen,8.93 µM (active)
same,IC50,[2],35.9 µM (active)
CCCN1CCN(C(=O)c2ccc(Sc3ccc(C)cc3)c(NC(C)=O)c2)CC1,EC50,[6],> 260 µM (inactive)
O=C1C2CCCCN2C(=O)N1CCCN1CCN(c2ccc(F)cc2)CC1 (stereo not drawn),EC50,[6],> 260 µM (inactive)
CC1CC(C)CN(C(=O)/C=C/c2ccc([N+](=O)[O-])s2)C1 (stereo not drawn),AC50,[7],11.9 µM (active)
O=C(N/N=C/c1ccc(O)cc1O)/C(=C/c1ccccc1)CCO,IC50,Large T antigen,19.4 µM (active)
same,AC50,[8],6.81 µM (active)
same,AC50,INS1,2.11 µM (active)
Cc1ccc(C(=O)CC(=O)c2ccccc2C)c(O)c1,EC50,[9],> 150 µM (inactive)
same,EC50,[10],6.61 µM (active)
same,EC50,Streptokinase A,> 150 µM (not active)
same,EC50,[11],> 38 µM (not active)
same,EC50,Streptococcus,9.83 µM (active)
COc1cccc(-c2nnc(SCc3cccnc3)o2)c1,EC50,[4],43.2 µM (active)
same,EC50,[5],33.1 µM (active)
same,EC50,H4,12.2 µM (active)
Cc1ccc(NC(=O)CCS(=O)(=O)c2ccc3c(c2)NC(=O)C(C)S3)nc1 (stereo not drawn),EC50,[6],> 260 µM (inactive)
Cc1ccc(C#CC[N+]2(CC#Cc3ccc(C)cc3)CCCCC2)cc1,EC50,[12],0.344 µM (active)
same,CC50,[13],> 40 µM (active)
same,EC50,[14],> 60 µM (inconclusive)
same,AC50,[7],3.95 µM (active)
same,AC50,INS1,2.04 µM (active)
N#Cc1ccc(-c2ccc3c(c2)[C@H]2[C@H](CCN2C(=O)C2CCCC2)[C@H](CO)N3)cc1,AC50,[1],4.55 µM (active)
CCN(CC)c1ccc(C(=O)OCC(=O)c2ccco2)cc1,EC50,[4],14.1 µM (active)
same,EC50,[5],94 µM (active)
same,EC50,H4,57.4 µM (active)
COc1ccc2c(c1)sc(=N)n2C,EC50,[12],0.122 µM (active)
same,EC50,[14],> 60 µM (inconclusive)
same,IC50,cells,30 µM (active)
O=C(Cc1ccc(O)cc1)NC1CCCCCC1,EC50,[4],47.4 µM (active)
same,EC50,[5],52 µM (active)
same,EC50,H4,16.8 µM (active)
same,EC50,[15],> 195 µM (not active)
CCOc1cc(/C=N/O)ccc1OS(=O)(=O)c1ccc(C)cc1,EC50,[16],312 µM (active)
O=C1c2cccc3cccc(c23)C(=O)N1OS(=O)(=O)c1ccccc1,EC50,[6],> 260 µM (inactive)
C/C=C/c1ccc([C@H]2[C@@H](CO)N(CC3CCCC3)C23CN(C(=O)CC2CC2)C3)cc1,AC50,[1],4.55 µM (active)
O=C(c1ccccc1)c1c[nH]c(C(=O)NNc2ccccc2)c1,EC50,[9],28.3 µM (active)
same,EC50,[11],> 38 µM (not active)
same,EC50,[12],1.71 µM (active)
same,EC50,[14],7.46 µM (active)
same,AC50,[8],1.09 µM (active)
COc1cc(/C=N/NC(=O)CSc2ccccn2)ccc1O,IC50,Large T antigen,9.69 µM (active)
CCOC(=O)CNc1c(-c2ccc(O)cc2)nc2ccc(Cl)cn12,IC50,Large T antigen,15.9 µM (active)
O=C(CCCN1C(=O)c2cccc3cccc(c23)C1=O)Nc1ccon1,EC50,[6],> 260 µM (inactive)
Cc1csc(Nc2ccccc2)[n+]1-c1ccccc1,EC50,[4],> 120 µM (not active)
same,EC50,[5],> 30 µM (not active)
same,EC50,H4,6.74 µM (active)
same,AC50,[3],1.14 µM (active)
CCCc1cc(O)nc(SCC(=O)Nc2ccc(C)cc2)n1,EC50,[6],> 260 µM (inactive)
CC(/C=N/Nc1n[nH]c2c3ccccc3nc-2n1)=C\c1ccco1,EC50,[4],11 µM (active)
same,EC50,[5],17.6 µM (active)
same,EC50,H4,15.5 µM (active)
O=C(CN1c2ccccc2Sc2ccccc21)N/N=C/c1ccc(Cl)cc1,EC50,[6],> 260 µM (inactive)
O=C(CNC(=O)c1ccccc1)N/N=C/c1ccc([N+](=O)[O-])s1,EC50,[12],0.285 µM (active)
same,EC50,[14],12.7 µM (active)
same,AC50,[7],5.34 µM (active)
CNc1nnc(Sc2ncccc2[N+](=O)[O-])s1,IC50,cells,7.5 µM (active)
Oc1ccc(-c2csc(-c3c[nH]c4ccccc34)n2)c(O)c1,EC50,[4],0.115 µM (active)
same,EC50,[5],4.35 µM (inconclusive)
same,EC50,H4,10.2 µM (active)
O=C(c1ccco1)c1nnn(Cc2ccccc2)c1-c1ccccc1,AC50,[8],3.72 µM (active)
same,EC50,[6],> 260 µM (inactive)
